The record followed here is patent US12630600B2 (MEDIMMUNE LIMITED, priority 2022, dated 2026).

Starred links: 1 amine or outer side, 2 acyl side, 3 side chain; linkers in the order of their positions; H or OH if unused. Non-standard residues stand in square brackets, D forms with d. Residues, ends and D or L forms follow the SMILES beside them. Groups on a side chain read outwards from the residue. *: point of attachment. C20 diacid = O=C(O)CCCCCCCCCCCCCCCCCCC(=O)*; C18 diacid = O=C(O)CCCCCCCCCCCCCCCCC(=O)*; γGlu = O=C(O)[C@H](CCC(=O)[*:2])N[*:1]; αMeF = C[C@](N)(Cc1ccccc1)C(=O)O; PEG2 = NCCOCCOCCC(=O)O; AEEA = NCCOCCOCC(=O)O; Aib = CC(C)(N)C(=O)O

In the assay the target is T1, human GLP-1 receptor (hGLP-1R) (Homo sapiens, UniProt P43220).
T1 construct: expressed in transfected cells; host or cells: CHO
Put plainly: cAMP production (HTRF) in CHO cells expressing human GLP-1 receptor. The assay is classed as cell-based. Conditions: % GLP-1R activity relative to GLP-1 / % GlucR activity relative to glucagon. The method, then:
Cells were re-suspended in assay buffer at a batch-dependent optimized concentration (typically hGLP-1R cells at 1×10^5 cells/mL, hGCGR cells at 2×10^5 cells/mL).
Cells were added to the assay plate using a multidrop dispenser and incubated at room temperature for 30 minutes before measuring the cAMP level using a cAMP dynamic 2 homogeneous time resolved Fluorescence (HTRF) kit (Cisbio Bioassays #62AM4PEJ) following the two-step protocol as per manufacturer's recommendations. In brief, anti-cAMP cryptate (donor fluorophore) and cAMP-d2 (acceptor fluorophore) were made up separately by diluting each 1 in 20 in conjugate and lysis buffer provided in the kit. Anti-cAMP cryptate was added to all wells of the assay plate, followed by cAMP-d2 added to all wells except non-specific binding (NSB) wells (to which conjugate and lysis buffer was added).
Data was transformed to % Delta F as described in the manufacturer's guidelines and analyzed by 4-parameter logistic fit to determine EC50 values.

T1 sequence (P43220 24-463): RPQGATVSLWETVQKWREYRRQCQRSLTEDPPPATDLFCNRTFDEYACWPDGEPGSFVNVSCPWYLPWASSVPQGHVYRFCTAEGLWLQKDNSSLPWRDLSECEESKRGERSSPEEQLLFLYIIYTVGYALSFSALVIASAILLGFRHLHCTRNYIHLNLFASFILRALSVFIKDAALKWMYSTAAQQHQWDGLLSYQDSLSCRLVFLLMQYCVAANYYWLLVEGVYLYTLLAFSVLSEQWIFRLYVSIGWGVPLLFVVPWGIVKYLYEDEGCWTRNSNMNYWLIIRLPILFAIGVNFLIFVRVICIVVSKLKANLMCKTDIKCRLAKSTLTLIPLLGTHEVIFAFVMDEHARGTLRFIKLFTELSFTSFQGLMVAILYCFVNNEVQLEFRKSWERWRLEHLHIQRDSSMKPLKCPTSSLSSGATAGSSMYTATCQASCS

Take `CC[C@H](C)[C@H](NC(=O)[C@H](Cc1c[nH]c2ccccc12)NC(=O)[C@H](CCCCNC(=O)COCCOCCNC(=O)COCCOCCNC(=O)CC[C@H](NC(=O)CCCCCCCCCCCCCCCCC(=O)O)C(=O)O)NC(=O)[C@@H](NC(=O)[C@H](Cc1ccccc1)NC(=O)[C@H](CC(=O)O)NC(=O)[C@H](CCC(N)=O)NC(=O)[C@H](C)NC(=O)[C@H](C)NC(=O)[C@H](CCC(N)=O)NC(=O)[C@H](CO)NC(=O)[C@H](CC(=O)O)NC(=O)[C@H](CC(C)C)NC(=O)[C@](C)(Cc1ccccc1)NC(=O)[C@H](CCCCN)NC(=O)[C@H](CO)NC(=O)[C@@H](NC(=O)[C@H](CC(=O)O)NC(=O)[C@H](CO)NC(=O)[C@@H](NC(=O)[C@](C)(Cc1ccccc1)NC(=O)[C@H](CO)NC(=O)CNC(=O)[C@H](CCC(N)=O)NC(=O)C(C)(C)NC(=O)[C@@H](N)Cc1c[nH]cn1)[C@@H](C)O)C(C)C)C(C)C)C(=O)N[C@@H](C)C(=O)N[C@@H](CC(N)=O)C(=O)N[C@H](C(N)=O)[C@@H](C)O` [Peptide 348] (H-H[Aib]QGS[αMeF]TSDVSK[αMeF]LDSQAAQDFVK([AEEA-AEEA-γGlu-C18 diacid])WIANT-NH2; N-terminus assumed): the “% Relative Potency Ratio” value (Table 8) turned out to be 116.0.
Consider `CC[C@H](C)[C@H](NC(=O)[C@H](Cc1c[nH]c2ccccc12)NC(=O)[C@H](CCCCNC(=O)CC[C@H](NC(=O)CCCCCCCCCCCCCCCCCCC(=O)O)C(=O)O)NC(=O)[C@@H](NC(=O)[C@H](Cc1ccccc1)NC(=O)[C@H](CC(=O)O)NC(=O)[C@H](CCC(N)=O)NC(=O)[C@H](C)NC(=O)[C@H](C)NC(=O)[C@H](CCC(N)=O)NC(=O)[C@H](CO)NC(=O)[C@H](CC(=O)O)NC(=O)[C@H](CC(C)C)NC(=O)[C@](C)(Cc1ccccc1)NC(=O)[C@H](CCCCN)NC(=O)[C@H](CO)NC(=O)[C@@H](NC(=O)[C@H](CC(=O)O)NC(=O)[C@H](CO)NC(=O)[C@@H](NC(=O)[C@H](Cc1ccccc1)NC(=O)[C@@H](NC(=O)CNC(=O)[C@H](Cc1c[nH]cn1)NC(=O)C(C)(C)NC(=O)[C@@H](N)Cc1c[nH]cn1)[C@@H](C)O)[C@@H](C)O)C(C)C)C(C)C)C(=O)N[C@@H](C)C(=O)N[C@@H](CC(N)=O)C(=O)N[C@H](C(N)=O)[C@@H](C)O` [Peptide 347], for which the “% Relative Potency Ratio” value (Table 8) turned out to be 0.2.
Regarding “H(Aib)HGS(αMePhe)TSDVSKK(O2OC-O2OC-γE-C18diacid)13LDSRAAQD(αMePhe)VQ(Aib)IANT-amide [Peptide 406]”, the “% Relative Potency Ratio” value (Table 10) is 31.6.
As to `CC[C@H](C)[C@H](NC(=O)C(C)(C)NC(=O)[C@H](CCCCNC(=O)COCCOCCNC(=O)COCCOCCNC(=O)CC[C@H](NC(=O)CCCCCCCCCCCCCCCCC(=O)O)C(=O)O)NC(=O)[C@@H](NC(=O)[C@H](Cc1ccccc1)NC(=O)[C@H](CC(=O)O)NC(=O)[C@H](CCC(N)=O)NC(=O)[C@H](C)NC(=O)[C@H](C)NC(=O)[C@H](CCCNC(=N)N)NC(=O)[C@H](CO)NC(=O)[C@H](CC(=O)O)NC(=O)[C@H](CC(C)C)NC(=O)[C@](C)(Cc1ccccc1)NC(=O)[C@H](CCCCN)NC(=O)[C@H](CO)NC(=O)[C@@H](NC(=O)[C@H](CC(=O)O)NC(=O)[C@H](CO)NC(=O)[C@@H](NC(=O)[C@](C)(Cc1ccccc1)NC(=O)[C@H](CO)NC(=O)CNC(=O)[C@H](Cc1c[nH]cn1)NC(=O)C(C)(C)NC(=O)[C@@H](N)Cc1c[nH]cn1)[C@@H](C)O)C(C)C)C(C)C)C(=O)N[C@@H](C)C(=O)N[C@@H](CC(N)=O)C(=O)N[C@H](C(N)=O)[C@@H](C)O` [Peptide 366] (H-H[Aib]HGS[αMeF]TSDVSK[αMeF]LDSRAAQDFVK([AEEA-AEEA-γGlu-C18 diacid])[Aib]IANT-NH2; N-terminus assumed), the “% Relative Potency Ratio” value (Table 8) was found to be 1.7.
Take `CC[C@H](C)[C@H](NC(=O)[C@H](Cc1c[nH]c2ccccc12)NC(=O)[C@H](CCCCNC(=O)CC[C@H](NC(=O)CCCCCCCCCCCCCCCCC(=O)O)C(=O)O)NC(=O)[C@@H](NC(=O)[C@H](Cc1ccccc1)NC(=O)[C@H](CC(=O)O)NC(=O)[C@H](CCC(N)=O)NC(=O)[C@H](C)NC(=O)[C@H](C)NC(=O)[C@H](CCC(N)=O)NC(=O)[C@H](CO)NC(=O)[C@H](CC(=O)O)NC(=O)[C@H](CC(C)C)NC(=O)[C@](C)(Cc1ccccc1)NC(=O)[C@H](CCCCN)NC(=O)[C@H](CO)NC(=O)[C@@H](NC(=O)[C@H](CC(=O)O)NC(=O)[C@H](CO)NC(=O)[C@@H](NC(=O)[C@](C)(Cc1ccccc1)NC(=O)[C@H](CO)NC(=O)CNC(=O)[C@H](Cc1c[nH]cn1)NC(=O)C(C)(C)NC(=O)[C@@H](N)Cc1c[nH]cn1)[C@@H](C)O)C(C)C)C(C)C)C(=O)N[C@@H](C)C(=O)N[C@@H](CC(N)=O)C(=O)N[C@H](C(N)=O)[C@@H](C)O` [Peptide 351] (H-H[Aib]HGS[αMeF]TSDVSK[αMeF]LDSQAAQDFVK([γGlu-C18 diacid])WIANT-NH2): the “% Relative Potency Ratio” value (Table 8) is 0.7.
As to `CC[C@H](C)[C@H](NC(=O)[C@H](Cc1c[nH]c2ccccc12)NC(=O)[C@H](CCCCNC(=O)COCCOCCNC(=O)COCCOCCNC(=O)CC[C@H](NC(=O)CC[C@H](NC(=O)CCCCCCCCCCCCCCCCC(=O)O)C(=O)O)C(=O)O)NC(=O)[C@@H](NC(=O)[C@H](Cc1ccccc1)NC(=O)[C@H](CC(=O)O)NC(=O)[C@H](CCC(N)=O)NC(=O)[C@H](C)NC(=O)[C@H](C)NC(=O)[C@H](CCCNC(=N)N)NC(=O)[C@H](CO)NC(=O)[C@H](CC(=O)O)NC(=O)[C@H](CC(C)C)NC(=O)[C@](C)(Cc1ccccc1)NC(=O)[C@H](CCCCN)NC(=O)[C@H](CO)NC(=O)[C@@H](NC(=O)[C@H](CC(=O)O)NC(=O)[C@H](CO)NC(=O)[C@@H](NC(=O)[C@](C)(Cc1ccccc1)NC(=O)[C@H](CO)NC(=O)CNC(=O)[C@H](Cc1c[nH]cn1)NC(=O)C(C)(C)NC(=O)[C@@H](N)Cc1c[nH]cn1)[C@@H](C)O)C(C)C)C(C)C)C(=O)N[C@@H](C)C(=O)N[C@@H](CC(N)=O)C(=O)N[C@H](C(=O)NCC(N)=O)[C@@H](C)O` [Peptide 363] (H-H[Aib]HGS[αMeF]TSDVSK[αMeF]LDSRAAQDFVK([AEEA-AEEA-γGlu-γGlu-C18 diacid])WIANTG-NH2; N-terminus assumed), the “% Relative Potency Ratio” value (Table 8) was found to be 5.1.
As to `CC(C)C[C@H](NC(=O)[C@H](CCC(=O)O)NC(=O)[C@H](CC(C)C)NC(=O)[C@](C)(Cc1ccccc1)NC(=O)[C@H](CCCCN)NC(=O)[C@H](CO)NC(=O)[C@@H](NC(=O)[C@H](CC(=O)O)NC(=O)[C@H](CO)NC(=O)[C@@H](NC(=O)[C@H](Cc1ccccc1)NC(=O)[C@@H](NC(=O)CNC(=O)[C@H](CCC(N)=O)NC(=O)C(C)(C)NC(=O)[C@@H](N)Cc1c[nH]cn1)[C@@H](C)O)[C@@H](C)O)C(C)C)C(=O)N[C@@H](CCCCNC(=O)COCCOCCNC(=O)COCCOCCNC(=O)CC[C@H](NC(=O)CCCCCCCCCCCCCCCCC(=O)O)C(=O)O)C(=O)N[C@@H](CCCNC(=N)N)C(=O)N[C@@H](C)C(=O)N[C@@H](CCC(N)=O)C(=O)N[C@@H](CC(=O)O)C(=O)N[C@@H](Cc1ccccc1)C(=O)N[C@H](C(=O)N[C@@H](CCCNC(=N)N)C(=O)N[C@@H](Cc1c[nH]c2ccccc12)C(=O)N[C@@H](CC(C)C)C(=O)N[C@@H](CC(C)C)C(=O)NC(C)(C)C(=O)N[C@H](C(=O)N[C@@H](CCC(=O)O)C(=O)O)[C@@H](C)O)C(C)C` [Peptide 169] (H-H[Aib]QGTFTSDVSK[αMeF]LELK([AEEA-AEEA-γGlu-C18 diacid])RAQDFVRWLL[Aib]TE-OH; N-terminus assumed), where the note is “Table 6”, the “% Relative Potency Ratio” value is reported as 13.2.
On to `CC[C@H](C)[C@H](NC(=O)[C@H](Cc1c[nH]c2ccccc12)NC(=O)[C@H](CCCCNC(=O)CCOCCOCCNC(=O)CCOCCOCCNC(=O)CC[C@H](NC(=O)CC[C@H](NC(=O)CCCCCCCCCCCCCCCCCCC(=O)O)C(=O)O)C(=O)O)NC(=O)[C@@H](NC(=O)[C@H](Cc1ccccc1)NC(=O)[C@H](CC(=O)O)NC(=O)[C@H](CCC(N)=O)NC(=O)[C@H](C)NC(=O)[C@H](C)NC(=O)[C@H](CCC(N)=O)NC(=O)[C@H](CO)NC(=O)[C@H](CC(=O)O)NC(=O)[C@H](CC(C)C)NC(=O)[C@](C)(Cc1ccccc1)NC(=O)[C@H](CCCCN)NC(=O)[C@H](CO)NC(=O)[C@@H](NC(=O)[C@H](CC(=O)O)NC(=O)[C@H](CO)NC(=O)[C@@H](NC(=O)[C@](C)(Cc1ccccc1)NC(=O)[C@H](CO)NC(=O)CNC(=O)[C@H](Cc1c[nH]cn1)NC(=O)C(C)(C)NC(=O)[C@@H](N)Cc1c[nH]cn1)[C@@H](C)O)C(C)C)C(C)C)C(=O)N[C@@H](C)C(=O)N[C@@H](CC(N)=O)C(=O)N[C@H](C(N)=O)[C@@H](C)O` [Peptide 355] (H-H[Aib]HGS[αMeF]TSDVSK[αMeF]LDSQAAQDFVK([PEG2-PEG2-γGlu-γGlu-C20 diacid])WIANT-NH2; N-terminus assumed), for which the “% Relative Potency Ratio” value (Table 8) is reported as 2.2.
With “HSQGS(αMePhe)TSDK((PEG)2-(PEG)2-γE-γE-Palmitoyl)10SK(Dip)LDS(ß-dimethylArg)AAQD(αMePhe)VE(Aib)LANT-amide [Peptide 394]”, the “% Relative Potency Ratio” value (Table 9) was 7.3.
